Target: SIRT6 enzyme (Homo sapiens, UniProt Q8N6T7)
Experiment: Measurement of deacetylation activity (SIRT6, AlphaLISA, H3K9(Ac) peptide)
Type: biochemical
Details: SIRT6 25 ng/mL, H3K9(Ac) biotin peptide 2 nM, NAD 10 μM, room temperature 30 minutes, duplicate
Description: The reaction was performed in duplicate using a white 384-well plate (3824, Corning or 6008350, PerkinElmer) at a final reaction liquid volume of 20.1 μL. As a control for calculating the enzyme activity, the enzyme-added (DMSO (+)) and enzyme-free (DMSO (−)) wells were set at n=8. Test substances (examples of final concentrations: 0.046, 0.14, 0.41, 1.2, 3.7, 11, 33, and 100 μM) at a concentration of 100 times or 0.1 μL of DMSO was dispensed into the plate and 5 μL of SIRT6 enzyme (prepared by Daiichi Sankyo RD Novare Co., Ltd., final concentration: 25 ng/mL) diluted with an assay buffer (10 mM Tris-HCl pH of 8.0, 0.1% BSA, 0.01% Tween 20, 1 mM DTT, 12.5% Glycerol) was added thereto. The enzymatic reaction was started by adding 5 μL of a mixed solution [Lys(Ac)9]-Histone H3 (1-21)-NH2, H3K9 (Ac), biotin-labeled, amide (AnaSpec, AS-64190, final concentration: 2 nM) and β-nicotinamide adenine dinucleotide (Sigma-Aldrich, N8285-15VL, final concentration: 10 μM), and the reaction was performed at room temperature for 30 minutes. 10 μL of a mixed solution of nicotinamide (Sigma-Aldrich, 72340-100G, final concentration: 100 mM) prepared with AlphaLISA Epigenetics Buffer (PerkinElmer, AL008C), AlphaLISA Anti-unmodified Histone H3 Lysine 9/Lysine 27 (H3K9/K27) Acceptor Beads (PerkinElmer, AL138, final concentration: 10 μg/mL), and AlphaScreen Streptavidin Donor beads (PerkinElmer, 6760002, final concentration: 5 μg/mL) was added thereto, the reaction was performed at room temperature for 60 minutes and then stopped, and acetylation was detected. The emission intensity was measured by EnVision (PerkinElmer).
The relative enzyme activity (%) of the test substance was calculated by the following equation. Relative enzyme activity (%)=[(emission intensity of test substance-added well−emission intensity of DMSO (−) well)/(emission intensity of DMSO (+) well−emission intensity of DMSO (−) well)]×100
The EC150 (the concentration of the compound showing a relative enzyme activity of 150%) of the test substance was calculated based on Sigmoidal dose-response (variable slope) of GraphPad Prism (GraphPad Software) using the value of the relative enzyme activity (%) at each concentration, and the results are listed in Tables 1-1 to 1-5.

SIRT6 enzyme, sequence (Q8N6T7 whole entry, species assumed): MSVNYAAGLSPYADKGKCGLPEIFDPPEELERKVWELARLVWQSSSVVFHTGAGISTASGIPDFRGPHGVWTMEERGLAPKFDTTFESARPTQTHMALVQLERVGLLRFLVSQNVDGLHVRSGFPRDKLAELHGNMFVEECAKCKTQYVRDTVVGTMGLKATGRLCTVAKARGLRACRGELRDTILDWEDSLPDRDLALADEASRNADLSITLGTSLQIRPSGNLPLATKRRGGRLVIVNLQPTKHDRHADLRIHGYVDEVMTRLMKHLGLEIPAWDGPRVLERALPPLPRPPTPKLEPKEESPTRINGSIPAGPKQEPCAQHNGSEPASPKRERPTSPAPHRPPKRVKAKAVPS

Row | SMILES | EC150 (the concentration of the compound showing a relative enzyme activity of 150%)
1 | O=C(Nc1nc2c(s1)[C@@H]1COC[C@H](C2)N1c1cc(-c2ccc(F)cc2)on1)N[C@H]1C[C@@H](O)C1 [Example 158, N-{(4S,8S)-10-[5-(4-fluorophenyl)-1,2-oxazol-3-yl]-4,7,8,9-tetrahydro-5H-4,8-epiminooxocino[5,4-d][1,3]thiazol-2-yl}-N′-[(1s,3R)-3-hydroxycyclobutyl]urea] | 1.1 μm
2 | CC(C)(O)CNC(=O)Nc1nc2c(s1)[C@@H]1COC[C@H](C2)N1c1ncc(-c2cccc(OC(F)F)c2)o1 [Example 172, N-[(4S,8S)-10-{5-[3-(difluoromethoxy)phenyl]-1,3-oxazol-2-yl}-4,7,8,9-tetrahydro-5H-4,8-epiminooxocino[5,4-d][1,3]thiazol-2-yl]-N′-(2-hydroxy-2-methylpropyl)urea] | 0.83 μm
3 | C[C@H](CO)NC(=O)Nc1nc2c(s1)[C@@H]1COC[C@H](C2)N1c1cc(-c2ccc(F)cc2)on1 [Example 154, N-{(4S,8S)-10-[5-(4-fluorophenyl)-1,2-oxazol-3-yl]-4,7,8,9-tetrahydro-5H-4,8-epiminooxocino[5,4-d][1,3]thiazol-2-yl}-N′-[(2R)-1-hydroxypropan-2-yl]urea] | 0.82 μm
4 | CNC(=O)Nc1nc2c(s1)[C@@H]1COC[C@H](C2)N1c1nc(-c2ccc(F)cc2)no1 (single isomer, unassigned) [Example 13] | 1.3 μm
5 | COc1cccc(-c2cc(N3[C@@H]4COC[C@H]3c3sc(NC(=O)NC5CCOCC5)nc3C4)no2)n1 [Example 62, N-{(4S,8S)-10-[5-(6-methoxypyridin-2-yl)-1,2-oxazol-3-yl]-4,7,8,9-tetrahydro-5H-4,8-epiminooxocino[5,4-d][1,3]thiazol-2-yl}-N′-oxan-4-ylurea] | 2.6 μm
6 | CC(C)OC(=O)N1CC2Cc3nc(NC(=O)NC4CCOCC4)sc3C(C1)N2c1nc(-c2ccc(F)cc2)no1 (stereo not drawn) [Example 143, Propan-2-yl-10-[3-(4-fluorophenyl)-1,2,4-oxadiazol-5-yl]-2-{[(oxan-4-yl)carbamoyl]amino}-4,7,8,9-tetrahydro-4,8-epimino[1,3]thiazolo[5,4-d]azocine-6(5H)-carboxylate] | 0.62 μm
7 | CNC(=O)Nc1nc2c(s1)C1COCC(C2)N1c1ncc(-c2cccc(C(=O)C3CC3)c2F)o1 (stereo not drawn) [Example 116, N-(10-{5-[3-(cyclopropanecarbonyl)-2-fluorophenyl]-1,3-oxazol-2-yl}-4,7,8,9-tetrahydro-5H-4,8-epiminooxocino[5,4-d][1,3]thiazol-2-yl)-N′-methylurea] | 3.1 μm
8 | C[C@@H](CO)NC(=O)Nc1nc2c(s1)[C@@H]1COC[C@H](C2)N1c1ncc(-c2cccc(OC(F)F)c2)o1 [Example 173, N-[(4S,8S)-10-{5-[3-(difluoromethoxy)phenyl]-1,3-oxazol-2-yl}-4,7,8,9-tetrahydro-5H-4,8-epiminooxocino[5,4-d][1,3]thiazol-2-yl]-N′-[(2S)-1-hydroxypropan-2-yl]urea] | 0.62 μm
9 | O=C(NCC1(O)CC1)Nc1nc2c(s1)[C@@H]1COC[C@H](C2)N1c1ncc(-c2cccc(OC(F)F)n2)o1 [Example 179, N-[(4S,8S)-10-{5-[6-(difluoromethoxy)pyridin-2-yl]-1,3-oxazol-2-yl}-4,7,8,9-tetrahydro-5H-4,8-epiminooxocino[5,4-d][1,3]thiazol-2-yl]-N′-[(1-hydroxycyclopropyl)methyl]urea] | 0.72 μm
10 | O=C(Nc1nc2c(s1)[C@@H]1COC[C@H](C2)N1c1cc(-c2ccc(F)cc2)on1)NC1CCOCC1 [Example 161, N-{(4S,8S)-10-[5-(4-fluorophenyl)-1,2-oxazol-3-yl]-4,7,8,9-tetrahydro-5H-4,8-epiminooxocino[5,4-d][1,3]thiazol-2-yl}-N′-oxan-4-ylurea] | 0.97 μm
11 | Cc1cc2nc(N3[C@@H]4COC[C@H]3c3sc(NC(=O)NCC(C)(C)O)nc3C4)oc2cc1C#N [Example 51, N-[(4S,8S)-10-(6-cyano-5-methyl-1,3-benzoxazol-2-yl)-4,7,8,9-tetrahydro-5H-4,8-epiminooxocino[5,4-d][1,3]thiazol-2-yl]-N′-(2-hydroxy-2-methylpropyl)urea] | 0.47 μm
12 | COc1ccc2oc(N3[C@@H]4COC[C@H]3c3sc(NC(=O)N[C@@H]5CCOC5)nc3C4)nc2c1 [Example 47, N-[(4S,8S)-10-(5-methoxy-1,3-benzoxazol-2-yl)-4,7,8,9-tetrahydro-5H-4,8-epiminooxocino[5,4-d][1,3]thiazol-2-yl]-N′-[(3R)-oxolan-3-yl]urea] | 0.83 μm
13 | O=C(Nc1nc2c(s1)CN(c1nccc(C3CCCOC3)n1)CC2)N[C@H]1C[C@H](O)C1 (stereo partly drawn) [Example 192, N-[(1r,3r)-3-hydroxycyclobutyl]-N′-{5-[4-(oxan-3-yl)pyrimidin-2-yl]-4,5,6,7-tetrahydro[1,3]thiazolo[5,4-c]pyridin-2-yl}urea] | 0.44 μm
14 | O=C(NCc1ccc[nH]c1=O)Nc1nc2c(s1)CN(c1nc(C3CCC(F)(F)CC3)no1)CC2 [Example 103, N-{5-[3-(4,4-difluorocyclohexyl)-1,2,4-oxadiazol-5-yl]-4,5,6,7-tetrahydro[1,3]thiazolo[5,4-c]pyridin-2-yl}-N′-[(2-oxo-1,2-dihydropyridin-3-yl)methyl]urea] | 1.8 μm
15 | CC(C)(O)CNC(=O)Nc1nc2c(s1)CN(c1nc3cc(S(C)(=O)=O)ccc3o1)C(C)(C)C2 [Example 75, N-(2-hydroxy-2-methylpropyl)-N′-{5-[5-(methanesulfonyl)-1,3-benzoxazol-2-yl]-6,6-dimethyl-4,5,6,7-tetrahydro[1,3]thiazolo[5,4-c]pyridin-2-yl}urea] | 0.94 μm
16 | CNC(=O)Nc1nc2c(s1)C1COCC(C2)N1c1nnc(-c2cccc(OC(C)(C)C)c2)o1 (stereo not drawn) [Example 111, N-{10-[5-(3-tert-butoxyphenyl)-1,3,4-oxadiazol-2-yl]-4,7,8,9-tetrahydro-5H-4,8-epiminooxocino[5,4-d][1,3]thiazol-2-yl}-N′-methylurea] | 2.2 μm
17 | CNC(=O)Nc1nc2c(s1)[C@@H]1CCC[C@H](C2)N1c1nc(-c2ccc(F)cc2)no1 (relative stereo) [Example 12, N-{(5R*,9S*)-10-[3-(4-fluorophenyl)-1,2,4-oxadiazol-5-yl]-4,5,6,7,8,9-hexahydro-5,9-epiminocycloocta[d][1,3]thiazol-2-yl}-N′-methylurea] | 1.4 μm
18 | O=C(Nc1nc2c(s1)[C@@H]1COC[C@H](C2)N1c1ncc(-c2cccc(OC(F)F)n2)o1)NC1(CO)CC1 [Example 181, N-[(4S,8S)-10-{5-[6-(difluoromethoxy)pyridin-2-yl]-1,3-oxazol-2-yl}-4,7,8,9-tetrahydro-5H-4,8-epiminooxocino[5,4-d][1,3]thiazol-2-yl]-N′-[1-(hydroxymethyl)cyclopropyl]urea] | 0.53 μm
19 | CNC(=O)Nc1nc2c(s1)C1CN(C(=O)OC(C)C)CC(C2)N1c1nc(-c2ccc(F)cc2)no1 (stereo not drawn) [Example 32, Propan-2-yl 10-[3-(4-fluorophenyl)-1,2,4-oxadiazol-5-yl]-2-[(methylcarbamoyl)amino]-4,7,8,9-tetrahydro-4,8-epimino[1,3]thiazolo[5,4-d]azocine-6(5H)-carboxylate] | 0.27 μm
20 | COc1ccc2oc(N3CCc4nc(NC(=O)N[C@H](C)CO)sc4C3)nc2c1 [Example 189, N-[(2R)-1-hydroxypropan-2-yl]-N′-[5-(5-methoxy-1,3-benzoxazol-2-yl)-4,5,6,7-tetrahydro[1,3]thiazolo[5,4-c]pyridin-2-yl]urea] | 0.38 μm
21 | CNC(=O)Nc1nc2c(s1)[C@H]1CN(CCO)C[C@@H](C2)N1c1nc(-c2ccc(F)cc2)no1 [Example 127, N-[(4R,8R)-10-[3-(4-fluorophenyl)-1,2,4-oxadiazol-5-yl]-6-(2-hydroxyethyl)-4,5,6,7,8,9-hexahydro-4,8-epimino[1,3]thiazolo[5,4-d]azocin-2-yl]-N′-methylurea] | 2.1 μm

— US11981686B2, “Urea compound having substituent” (DAIICHI SANKYO COMPANY, LIMITED, priority 2019, dated 2024)
